# Positions of bridges follow the written chain, without caps; N, C: chain ends. Residues, ends and D or L forms follow the SMILES beside them.
# Test system: MCF-7 human breast cancer cells
# Assay: Annexin V-FITC flow cytometry for apoptotic cells, MCF7
# Format: cell-based
# Details: 24 hrs, 0 μM to 200 μM
# Experimental: (§1) SW480 human colon cancer cells and MCF7 breast cancer cells were grown following the instructions of American Type Culture Collection (ATCC, Monassas, Va.). The cells were treated with the test peptides (YJB01, YJB05, or YJB06) for 24 hrs at concentrations ranging from 0 μM, to 200 μM. After treatment, cells were trypsinized and stained with Annexin V-FITC (100× dilution) for 15 minutes. Annexin V-FITC fluorescence intensities were analyzed by FACSCaliber (BD Bioscience) following standard protocols. Annexin V (+) cells are apoptotic cells.
# When cells undergo apoptosis, the inner membrane phospholipid, phosphotidylserine (PS), flips to the outer membrane and can be recognized by the […]. The green FITC fluorescence can be determined by flow cytometry and thus Annexin V (+) cells are apoptotic cells.
# as §1, with “In this study, SW480” for “SW480”, “human” for “human colon”, “treatment” for “treatment,”, “protocols.” for “protocols. Annexin V (+) cells are apoptotic cells.”
smiles,measurement,value
CC[C@H](C)[C@H](NC(=O)[C@H](CCCCN)NC(=O)[C@@H](NC(=O)[C@H](CCC(N)=O)NC(=O)[C@H](CCCNC(=N)N)NC(=O)[C@@H]1CCCN1C(=O)[C@H](CCCCN)NC(=O)[C@@H]1CSSC[C@H](NC(=O)[C@H](Cc2c[nH]c3ccccc23)NC(=O)[C@@H](NC(=O)[C@H](C)N)[C@@H](C)O)C(=O)NCC(=O)N2CCC[C@H]2C(=O)N1)[C@@H](C)CC)C(=O)N[C@@H](Cc1c[nH]c2ccccc12)C(=O)N[C@@H](Cc1ccccc1)C(=O)N[C@@H](CCC(N)=O)C(=O)N[C@@H](CC(N)=O)C(=O)N[C@@H](CCCNC(=N)N)C(=O)N[C@@H](CCCNC(=N)N)C(=O)N[C@@H](CCSC)C(=O)N[C@@H](CCCCN)C(=O)N[C@@H](Cc1c[nH]c2ccccc12)C(=O)N[C@@H](CCCCN)C(=O)N[C@@H](CCCCN)C(=O)O [YJB01] (H-ATWCGPCKPRQIKIWFQNRRMKWKK-OH; disulfide 4-7; N-terminus and C-terminus assumed),"apoptosis, Annexin V (+) cells, MCF7",cell killing effect
